# Assay results: PubChem BioAssay (NCI)
#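 How tested: cells in 96-well plates exposed to compound for 48 hours at five concentrations. GI50 is the concentration that inhibits growth by half. TGI: total growth inhibition.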
# Assays:
# Assay in all cases: NCI-60 cell line screen, 48 h
# [1] = test system: SW-620 colon
# [2] = test system: OVCAR-3 ovarian
# [3] = test system: ACHN renal
# [4] = test system: PC-3 prostate
# [5] = test system: HT29 colon
# [6] = test system: MOLT-4 leukemia
# [7] = test system: HCC-2998 colon
# [8] = test system: U251 CNS
# [9] = test system: MCF7 breast
# [10] = test system: HOP-92 NSCLC
# [11] = test system: SK-MEL-28 melanoma
# [12] = test system: CAKI-1 renal
# [13] = test system: SNB-75 CNS
# [14] = test system: SK-MEL-2 melanoma
# [15] = test system: A498 renal
# [16] = test system: SF-539 CNS
# [17] = test system: HOP-62 NSCLC
# [18] = test system: NCI-H23 lung
# [19] = test system: RXF 393 renal
# [20] = test system: HCT-15 colon
# [21] = test system: SF-295 CNS
# [22] = test system: A549 NSCLC
# [23] = test system: MDA-MB-468 breast
# [24] = test system: SR leukemia
# [25] = test system: LOX IMVI melanoma
# [26] = test system: CCRF-CEM leukemia
# [27] = test system: BT-549 breast
# [28] = test system: T-47D breast
# [29] = test system: COLO 205 colon
# [30] = test system: UACC-257 melanoma
# [31] = test system: OVCAR-8 ovarian
# [32] = test system: DU-145 prostate
# [33] = test system: RPMI-8226 leukemia
# [34] = test system: MALME-3M melanoma
# [35] = test system: MDA-MB-435
# [36] = test system: UACC-62 melanoma
# [37] = test system: NCI/ADR-RES ovarian
# [38] = test system: UO-31 renal
# [39] = test system: SNB-19 CNS
# [40] = test system: NCI-H460 lung
# [41] = test system: TK-10 renal
# [42] = test system: HL-60(TB) leukemia
# [43] = test system: 786-0 renal
# [44] = test system: M14 melanoma
# [45] = test system: MDA-MB-231 breast
# [46] = test system: EKVX NSCLC
# [47] = test system: OVCAR-5 ovarian
# [48] = test system: SF-268 CNS
# [49] = test system: SK-MEL-5 melanoma
# [50] = test system: IGROV1 ovarian
# [51] = test system: SN12C renal
# [52] = test system: NCI-H522 lung
# [53] = test system: NCI-H226 lung
# [54] = test system: OVCAR-4 ovarian
# [55] = test system: HCT-116 colon
# [56] = test system: SK-OV-3 ovarian
# [57] = test system: KM12 colon
# [58] = test system: HS 578T breast
# [59] = test system: K-562 leukemia
smiles,measurement,setting,value
CC1(C)CC[C@]2(C(=O)O)CC[C@]3(C)C(=CCC4[C@@]5(C)C[C@@H](O)[C@@H]6OC(c7ccccc7F)OC[C@@]6(C)C5CC[C@]43C)C2C1 (stereo partly drawn),GI50,[1],4.34 µM
same,TGI,[1],16.4 µM
same,GI50,[2],3.23 µM
same,TGI,[2],13.1 µM
same,GI50,[3],2.83 µM
same,TGI,[3],12.3 µM
same,GI50,[4],3.21 µM
same,TGI,[4],18.3 µM
same,GI50,[5],3.6 µM
same,TGI,[5],17.2 µM
same,GI50,[6],2.09 µM
same,TGI,[6],12 µM
same,GI50,[7],3.49 µM
same,TGI,[7],14.1 µM
same,GI50,[8],2.63 µM
same,TGI,[8],12.9 µM
same,GI50,[9],3.42 µM
same,TGI,[9],14.6 µM
same,GI50,[10],2.65 µM
same,TGI,[10],11.9 µM
same,GI50,[11],5.96 µM
same,TGI,[11],18.4 µM
same,GI50,[12],3.8 µM
same,TGI,[12],14.4 µM
same,GI50,[13],2.77 µM
same,TGI,[13],15 µM
same,GI50,[14],4.83 µM
same,TGI,[14],20 µM
same,GI50,[15],7.09 µM
same,TGI,[15],20.2 µM
same,GI50,[16],3.65 µM
same,TGI,[16],13 µM
same,GI50,[17],3.61 µM
same,TGI,[17],15 µM
same,GI50,[18],3.97 µM
same,TGI,[18],15.7 µM
same,GI50,[19],2.54 µM
same,TGI,[19],7.92 µM
same,GI50,[20],2.14 µM
same,TGI,[20],10.9 µM
same,GI50,[21],2.72 µM
same,TGI,[21],13 µM
same,GI50,[22],1.62 µM
same,TGI,[22],12.3 µM
same,GI50,[23],3.37 µM
same,TGI,[23],14 µM
same,GI50,[24],3.29 µM
same,TGI,[24],21.9 µM
same,GI50,[25],3.49 µM
same,TGI,[25],14.2 µM
same,GI50,[26],2.53 µM
same,TGI,[26],12.6 µM
same,GI50,[27],2.84 µM
same,TGI,[27],11.3 µM
same,GI50,[28],6.64 µM
same,TGI,[28],24.7 µM
same,GI50,[29],2.73 µM
same,TGI,[29],8.52 µM
same,GI50,[30],4.68 µM
same,TGI,[30],18.2 µM
same,GI50,[31],3.41 µM
same,TGI,[31],15.6 µM
same,GI50,[32],6.27 µM
same,TGI,[32],19.8 µM
same,GI50,[33],2.09 µM
same,TGI,[33],16.1 µM
same,GI50,[34],5.08 µM
same,TGI,[34],17.9 µM
same,GI50,[35],5.58 µM
same,TGI,[35],18.6 µM
same,GI50,[36],5.02 µM
same,TGI,[36],18 µM
same,GI50,[37],3.11 µM
same,TGI,[37],14.5 µM
same,GI50,[38],2.53 µM
same,TGI,[38],13.5 µM
same,GI50,[39],3.75 µM
same,TGI,[39],15.8 µM
same,GI50,[40],3.67 µM
same,TGI,[40],14.1 µM
same,GI50,[41],6.03 µM
same,TGI,[41],19.8 µM
same,GI50,[42],2.67 µM
same,TGI,[42],9.82 µM
same,GI50,[43],4.4 µM
same,TGI,[43],16 µM
same,GI50,[44],6.64 µM
same,TGI,[44],20.6 µM
same,GI50,[45],9.03 µM
same,TGI,[45],21.3 µM
same,GI50,[46],3.16 µM
same,TGI,[46],14.5 µM
same,GI50,[47],9.04 µM
same,TGI,[47],21.1 µM
same,GI50,[48],5.04 µM
same,TGI,[48],20.7 µM
same,GI50,[49],3.39 µM
same,TGI,[49],12.7 µM
same,GI50,[50],5.54 µM
same,TGI,[50],18.1 µM
same,GI50,[51],3.57 µM
same,TGI,[51],15.7 µM
same,GI50,[52],3.79 µM
same,TGI,[52],16.8 µM
same,GI50,[53],3.3 µM
same,TGI,[53],15.1 µM
same,GI50,[54],5.19 µM
same,TGI,[54],19.4 µM
same,GI50,[55],2.75 µM
same,TGI,[55],11.7 µM
same,GI50,[56],4.51 µM
same,TGI,[56],17.4 µM
same,GI50,[57],3.7 µM
same,TGI,[57],15.1 µM
same,GI50,[58],3.5 µM
same,TGI,[58],16.2 µM
same,GI50,[59],2.66 µM
same,TGI,[59],84.2 µM
